Source: patent publication US8207172B2 (Bayer Intellectual Property GmbH, priority 2004, dated 2012)
Counter-ions that a name gives are not always drawn.

Tests used:
[1] = system: A431 cells (human epidermoid carcinoma); assay: In vitro tumor cell proliferation assay (Cell Titer-Glo luminescent cell viability), A431; type: cell-based; conditions: A-431, 72 h, 72 hours of drug exposure, ATP luminescence readout, read-out: IC50, anti-proliferative activity (inhibition of cell proliferation)
How it was run: (§1)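 Seeding density 2.5×10^3 cells/well; 72 h drug exposure at 37° C; endpoint CellTiter-Glo luminescence, reported as IC50.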

[2] = system: BT474 (human breast carcinoma); assay: In vitro tumor cell proliferation assay (Cell Titer-Glo luminescent cell viability), BT474; type: cell-based; conditions: BT-474, 72 h, BT474 cells, 72 hours of drug exposure, ATP luminescence readout, read-out: IC50, anti-proliferative activity (inhibition of cell proliferation)
How it was run: as §1

| IC50 [1] [µM] | IC50 [2] [µM] | Structure (SMILES) |
| --- | --- | --- |
| ≤ 50 | ≤ 1 | COCCN1CCN(C[C@@H](O)Cn2cc3c(n2)CCc2c-3sc3ncnc(Nc4ccc(OCc5cccc(F)c5)c(Cl)c4)c23)CC1 [Example 133, (2R)-1-[6-({3-chloro-4-[(3-fluorobenzyl)oxy]phenyl}amino)-4,5-dihydro-2H-pyrimido[5′,4′:4,5]thieno[2,3-e]indazol-2-yl]-3-[4-(2-methoxyethyl)piperazin-1-yl]propan-2-ol] |
| ≤ 50 | ≤ 1 | COCCN1CCN(C[C@@H](O)Cn2ncc3c2CCc2c-3sc3ncnc(Nc4ccc(OCc5cccc(F)c5)c(Cl)c4)c23)CC1 [Example 134, (2R)-1-[6-({3-chloro-4-[(3-fluorobenzyl)oxy]phenyl}amino)-4,5-dihydro-3H-pyrimido[5′,4′:4,5]thieno[2,3-e]indazol-3-yl]-3-[4-(2-methoxyethyl)piperazin-1-yl]propan-2-ol] |
| ≤ 50 | ≤ 1 | OC(CN1CCOCC1)Cn1cc2c(n1)CCc1c-2sc2ncnc(Nc3ccc(OCc4cccc(F)c4)c(Cl)c3)c12 (centres unmarked) [Example 135, 1-[6-({3-chloro-4-[(3-fluorobenzyl)oxy]phenyl}amino)-4,5-dihydro-2H-pyrimido[5′,4′:4,5]thieno[2,3-e]indazol-2-yl]-3-morpholin-4-ylpropan-2-ol] |
| ≤ 50 | ≤ 1 | CN1CCN(C[C@@H](O)Cn2cc3c(n2)CCc2c-3sc3ncnc(Nc4ccc(OCc5cccc(F)c5)c(Cl)c4)c23)CC1 [Example 136, (2R)-1-[6-({3-chloro-4-[(3-fluorobenzyl)oxy]phenyl}amino)-4,5-dihydro-2H-pyrimido[5′,4′:4,5]thieno[2,3-e]indazol-2-yl]-3-(4-methylpiperazin-1-yl)propan-2-ol] |
| ≤ 50 | ≤ 1 | COCCN(CCOC)C[C@@H](O)Cn1cc2c(n1)CCc1c-2sc2ncnc(Nc3ccc(OCc4cccc(F)c4)c(Cl)c3)c12 [Example 138, (2R)-1-[bis(2-methoxyethyl)amino]-3-[6-({3-chloro-4-[(3-fluorobenzyl)oxy]phenyl}amino)-4,5-dihydro-2H-pyrimido[5′,4′:4,5]thieno[2,3-e]indazol-2-yl]propan-2-ol] |
| ≤ 50 | ≤ 1 | O[C@H](CN1CCSCC1)Cn1cc2c(n1)CCc1c-2sc2ncnc(Nc3ccc(OCc4cccc(F)c4)c(Cl)c3)c12 [Example 139, (2R)-1-[6-({3-chloro-4-[(3-fluorobenzyl)oxy]phenyl}amino)-4,5-dihydro-2H-pyrimido[5′,4′:4,5]thieno[2,3-e]indazol-2-yl]-3-thiomorpholin-4-ylpropan-2-ol] |
| ≤ 50 | ≤ 1 | COC[C@@H]1CCCN1C[C@@H](O)Cn1cc2c(n1)CCc1c-2sc2ncnc(Nc3ccc(OCc4cccc(F)c4)c(Cl)c3)c12 [Example 140, (2R)-1-[6-({3-chloro-4-[(3-fluorobenzyl)oxy]phenyl}amino)-4,5-dihydro-2H-pyrimido[5′,4′:4,5]thienol[2,3-e]indazol-2-yl]-3-[(2S)-2-(methoxymethyl)pyrrolidin-1-yl]propan-2-ol] |
| ≤ 50 | ≤ 1 | O[C@H](Cn1ccnc1)Cn1cc2c(n1)CCc1c-2sc2ncnc(Nc3ccc(OCc4cccc(F)c4)c(Cl)c3)c12 [Example 141, (2R)-1-[6-({3-chloro-4-[(3-fluorobenzyl)oxy]phenyl}amino)-4,5-dihydro-2H-pyrimido[5′,4′:4,5]thieno[2,3-e]indazol-2-yl]-3-(1H-imidazol-1-yl)propan-2-ol trifluoroacetate (salt)] |
| ≤ 50 | ≤ 1 | O[C@H](CNCCN1CCOCC1)Cn1cc2c(n1)CCc1c-2sc2ncnc(Nc3ccc(OCc4cccc(F)c4)c(Cl)c3)c12 [Example 142, (2R)-1-[6-({3-chloro-4-[(3-fluorobenzyl)oxy]phenyl}amino)-4,5-dihydro-2H-pyrimido[5′,4′:4,5]thieno[2,3-e]indazol-2-yl]-3-[(2-morpholin-4-ylethyl)amino]propan-2-ol] |
| ≤ 50 | ≤ 1 | OCCN(CCO)C[C@@H](O)Cn1cc2c(n1)CCc1c-2sc2ncnc(Nc3ccc(OCc4cccc(F)c4)c(Cl)c3)c12 [Example 144, (2R)-1-[bis(2-hydroxyethyl)amino]-3-[6-({3-chloro-4-[(3-fluorobenzyl)oxy]phenyl}amino)-4,5-dihydro-2H-pyrimido[5′,4′:4,5]thieno[2,3-e]indazol-2-yl]propan-2-ol] |
| ≤ 50 | ≤ 1 | COCCNC[C@@H](O)Cn1cc2c(n1)CCc1c-2sc2ncnc(Nc3ccc(OCc4cccc(F)c4)c(Cl)c3)c12 [Example 146, (2R)-1-[6-({3-chloro-4-[(3-fluorobenzyl)oxy]phenyl}amino)-4,5-dihydro-2H-pyrimido[5′,4′:4,5]thieno[2,3-e]indazol-2-yl]-3-[(2-methoxyethyl)amino]propan-2-ol] |
| ≤ 50 | ≤ 1 | O[C@H](CN1CCCCC1)Cn1cc2c(n1)CCc1c-2sc2ncnc(Nc3ccc(OCc4cccc(F)c4)c(Cl)c3)c12 [Example 148, (2R)-1-[6-({3-chloro-4-[(3-fluorobenzyl)oxy]phenyl}amino)-4,5-dihydro-2H-pyrimido[5′,4′:4,5]thieno[2,3-e]indazol-2-yl]-3-piperidin-1-ylpropan-2-ol trifluoroacetate (salt)] |
| ≤ 50 | ≤ 1 | O[C@H](CN1CCCC1)Cn1cc2c(n1)CCc1c-2sc2ncnc(Nc3ccc(OCc4cccc(F)c4)c(Cl)c3)c12 [Example 149, (2R)-1-[6-({3-chloro-4-[(3-fluorobenzyl)oxy]phenyl}amino)-4,5-dihydro-2H-pyrimido[5′,4′:4,5]thieno[2,3-e]indazol-2-yl]-3-pyrrolidin-1-ylpropan-2-ol trifluoroacetate (salt)] |
| ≤ 50 | ≤ 1 | O[C@H](CN1CC[C@H](O)C1)Cn1cc2c(n1)CCc1c-2sc2ncnc(Nc3ccc(OCc4cccc(F)c4)c(Cl)c3)c12 [Example 150, (3S)-1-{(2R)-3-[6-({3-chloro-4-[(3-fluorobenzyl)oxy]phenyl}amino)-4,5-dihydro-2H-pyrimido[5′,4′:4,5]thieno[2,3-e]indazol-2-yl]-2-hydroxypropyl}pyrrolidin-3-ol trifluoroacetate (salt)] |
| ≤ 50 | ≤ 1 | OCCNC[C@@H](O)Cn1cc2c(n1)CCc1c-2sc2ncnc(Nc3ccc(OCc4cccc(F)c4)c(Cl)c3)c12 [Example 151, (2R)-1-[6-({3-chloro-4-[(3-fluorobenzyl)oxy]phenyl}amino)-4,5-dihydro-2H-pyrimido[5′,4′:4,5]thieno[2,3-e]indazol-2-yl]-3-[(2-hydroxyethyl)amino]propan-2-ol trifluoroacetate (salt)] |
| ≤ 50 | ≤ 1 | O[C@H](CN1CCNCC1)Cn1cc2c(n1)CCc1c-2sc2ncnc(Nc3ccc(OCc4cccc(F)c4)c(Cl)c3)c12 [Example 152, (2R)-1-[6-({3-chloro-4-[(3-fluorobenzyl)oxy]phenyl}amino)-4,5-dihydro-2H-pyrimido[5′,4′:4,5]thieno[2,3-e]indazol-2-yl]-3-piperazin-1-ylpropan-2-ol trifluoroacetate (salt)] |
| ≤ 50 | ≤ 1 | CS(=O)(=O)CCNC[C@@H](O)Cn1cc2c(n1)CCc1c-2sc2ncnc(Nc3ccc(OCc4cccc(F)c4)c(Cl)c3)c12 [Example 154, (2R)-1-[6-({3-chloro-4-[(3-fluorobenzyl)oxy]phenyl}amino)-4,5-dihydro-2H-pyrimido[5′,4′:4,5]thieno[2,3-e]indazol-2-yl]-3-{[2-(methylsulfonyl)ethyl]amino} propan-2-ol trifluoroacetate (salt)] |
| ≤ 50 | ≤ 1 | CNC[C@@H](O)Cn1cc2c(n1)CCc1c-2sc2ncnc(Nc3ccc(OCc4cccc(F)c4)c(Cl)c3)c12 [Example 155, (2R)-1-[6-({3-chloro-4-[(3-fluorobenzyl)oxy]phenyl}amino)-4,5-dihydro-2H-pyrimido[5′,4′:4,5]thieno[2,3-e]indazol-2-yl]-3-(methylamino)propan-2-ol trifluoroacetate (salt)] |
| ≤ 50 | ≤ 1 | CN(C)C[C@@H](O)Cn1cc2c(n1)CCc1c-2sc2ncnc(Nc3ccc(OCc4cccc(F)c4)c(Cl)c3)c12 [Example 156, (2R)-1-[6-({3-chloro-4-[(3-fluorobenzyl)oxy]phenyl}amino)-4,5-dihydro-2H-pyrimido[5′,4′:4,5]thieno[2,3-e]indazol-2-yl]-3-(dimethylamino)propan-2-ol trifluoroacetate (salt)] |
| ≤ 50 | ≤ 1 | CCNC[C@@H](O)Cn1cc2c(n1)CCc1c-2sc2ncnc(Nc3ccc(OCc4cccc(F)c4)c(Cl)c3)c12 [Example 157, (2R)-1-[6-({3-chloro-4-[(3-fluorobenzyl)oxy]phenyl}amino)-4,5-dihydro-2H-pyrimido[5′,4′:4,5]thieno[2,3-e]indazol-2-yl]-3-(ethylamino)propan-2-ol trifluoroacetate (salt)] |
| ≤ 50 | ≤ 5 | CCN(CC)C[C@@H](O)Cn1cc2c(n1)CCc1c-2sc2ncnc(Nc3ccc(OCc4cccc(F)c4)c(Cl)c3)c12 [Example 158, (2R)-1-[6-({3-chloro-4-[(3-fluorobenzyl)oxy]phenyl}amino)-4,5-dihydro-2H-pyrimido[5′,4′:4,5]thieno[2,3-e]indazol-2-yl]-3-(diethylamino)propan-2-ol trifluoroacetate (salt)] |
| ≤ 50 | ≤ 5 | CC(C)NC[C@@H](O)Cn1cc2c(n1)CCc1c-2sc2ncnc(Nc3ccc(OCc4cccc(F)c4)c(Cl)c3)c12 [Example 159, (2R)-1-[6-({3-chloro-4-[(3-fluorobenzyl)oxy]phenyl}amino)-4,5-dihydro-2H-pyrimido[5′,4′:4,5]thieno[2,3-e]indazol-2-yl]-3-(isopropylamino)propan-2-ol trifluoroacetate (salt)] |
